Series [1] deals with Mus musculus.
The test system of another series is Oryctolagus sp. As to conditions: acute; dermal; New Zealand.
Series [2] has as its system Rattus norvegicus.
The subject of series [3] is Rattus norvegicus. In words: LD100; higher = less toxic. As to conditions: acute; oral.
The subject of a further series is Anas platyrhynchos. The conditions noted are these: oral.
In series [4] the test system is Rattus norvegicus. As to conditions: oral.
Series [5] concerns Rattus norvegicus. As to conditions: oral, M/F; for NOAEL: Sprague-Dawley.
Series [6] deals with Rattus norvegicus. As to conditions: subchronic; duration: 12 weeks; oral; diet; Kidney: Toxicity + Liver: Toxicity.
Another series has as its system Neovison sp. As to conditions: repeat dose other; oral; Mink.
The subject of series [7] is Rattus norvegicus. As to conditions: repeat dose other; oral.
Series [8] has as its system Homo sapiens. As to conditions: clinical; duration: 5 minutes; inhalation; M; respiratory.
The test system of series [9] is Mus musculus. The conditions noted are these: chronic; oral; M/F; lung and kidney histopathology.
Series [10] deals with Mus musculus. The conditions noted are these: oral.
Series [11] relates to Homo sapiens. As to conditions: clinical, oral, diet.
A further series deals with Cavia porcellus. As to conditions: repeat dose other; oral; Guinea Pig.
A further series deals with Gallus gallus. The conditions noted are these: repeat dose other; oral.
In series [12] the test system is Mus musculus. The conditions noted are these: repeat dose other; oral.
A further series relates to Sus scrofa. As to conditions: oral, Not specified; for LOEL: duration: 14 weeks, M/F, Changes in serum testosterone and estradiol and testes weight.
In the next series the test system is Cricetulus sp. As to conditions: oral, gavage, Hamster.
The mark [13] stands for this setting: reproduction developmental, duration: 10 days, oral, gavage, F, CD1.
Setting [14] is: reproduction developmental, M/F, forelimb hair loss + Parturition mortality.
Where [15] appears, read: chronic, duration: 14 weeks, inhalation, F, B6C3F1.
[16] abbreviates: chronic, duration: 14 weeks, inhalation, M, B6C3F1.
Setting [17] is: chronic, duration: 14 weeks, inhalation, F, Fischer 344.
Where [18] appears, read: chronic, duration: 14 weeks, inhalation, M, Fischer 344.

Each structure is given as a SMILES string. Some results are limits rather than exact numbers.

One may read the NOAEL as the highest tested level that showed no adverse finding. As a reminder, the LD50 is the dose expected to kill half of the subjects tested. By LC50 is commonly meant the concentration that kills 50% of the test population. For orientation: LOAEL means the lowest tested level that showed an adverse finding.

Regarding `CC(O)C(=O)O` (stereo unspecified) [Lactic acid], the NOAEL was no less than 570 mg/kg-day with Mus musculus [1] (reproduction developmental, duration: 10 days, oral, gavage, CD1, generation: F1) and no less than 570 mg/kg-day in the series with Mus musculus [1] (setting [13]). In the series on Oryctolagus sp., this molecule yielded an LD50 greater than 2000 mg/kg. Also, in the series with Rattus norvegicus [2] (acute, Inhalation, Fischer 344), the LC50 is greater than 7.94 µg/mL. Besides, the LOAEL with Rattus norvegicus [2] (subchronic, duration: 13 weeks, dermal, F, Sprague-Dawley) was 886 mg/kg-day. For the same molecule, the LD100 in the series with Rattus norvegicus [3] is 11200 mg/kg.
Take `ClC1C(Cl)C(Cl)C(Cl)C(Cl)C1Cl` (stereo unspecified) [Lindane]: the lowest-observed-adverse-effect level (LOAEL) in the series with Anas platyrhynchos stood at 20 mg/kg-day; in the series on Rattus norvegicus [4] (subchronic, M, liver and kidney toxicity), 1.55 mg/kg-day; in the series with Rattus norvegicus [5] (developmental, duration: 1 days, gavage, Bor:spf, developmental) it was 1 mg/kg-day. Further, the no-observed-adverse-effect level (NOAEL) with Anas platyrhynchos was found to be 2 mg/kg-day; with Rattus norvegicus [4] (subchronic, F, liver and kidney toxicity), 0.33 mg/kg-day; in the series with Rattus norvegicus [5] (developmental, duration: 13 weeks, drinking water, developmental) it was 7.6e-05 mg/kg-day; in the series with Rattus norvegicus [6] it was 0.33 mg/kg-day.
Regarding `[CH3][Hg][Cl]` [Methylmercuric(II) chloride], the LOAEL came to 0.025 mg/kg-day in the series on Neovison sp. and 0.16 mg/kg-day in the series on Rattus norvegicus [7]. Besides, the NOAEL turned out to be 0.015 mg/kg-day with Neovison sp. and 0.032 mg/kg-day in the series on Rattus norvegicus [7].
As to `[P]` [Phosphorus], the values for the LOAEL in the series on Rattus norvegicus [4] (setting [14]) and with Homo sapiens [8] were 0.075 mg/kg-day and 187 mg/m3, respectively. For the same molecule, the no-observed-adverse-effect level (NOAEL) with Rattus norvegicus [4] (setting [14]) was 0.015 mg/kg-day; in the series on Rattus norvegicus [5] (reproduction developmental, duration: 204 days, gavage, reproductive), 0.015 mg/kg-day.
On to `O=C1OC(=O)c2ccccc21` [Phthalic anhydride], for which the LOAEL stood at 1560 mg/kg-day with Mus musculus [9] and 1560 mg/kg-day with Mus musculus [10] (chronic, duration: 104 weeks, diet, Kidney: Histopathology + Lung: Histopathology).
Regarding `CCN(CC)c1nc(C)cc(OP(=S)(OC)OC)n1` [Pirimiphos-methyl], the NOEL in the series with Homo sapiens [11] (duration: 28 days, M, Borderline ChE depression) was determined as 0.25 mg/kg-day; in the series on Homo sapiens [11] (duration: 56 days, M/F, Transient plasma ChE depression), 0.25 mg/kg-day.
In the series on Cavia porcellus, `O=[N+]([O-])[O-].[K+]` [Potassium nitrate] returned an LOAEL of 1130 mg/kg-day and an NOAEL of 507 mg/kg-day.
In the series on Gallus gallus, `O.O.[Na+].[Na+].[O]=[Mo](=[O])([O-])[O-]` [Sodium molybdate (Na2MoO4) dihydrate] registered an LOAEL of 35.3 mg/kg-day and a no observed adverse effect level (NOAEL) of 3.5 mg/kg-day.
Consider `ClC(Cl)=C(Cl)Cl` [Tetrachloroethylene], for which, in the series on Mus musculus [12], the lowest-observed-adverse-effect level (LOAEL) was 7 mg/kg-day and the NOAEL came to 1.4 mg/kg-day. For the same molecule, the NOAEL with Mus musculus [10] (subchronic, duration: 6 weeks, Liver: Hepatotoxicity) came out at 14 mg/kg-day.
In the case of `CC(=O)O[C@H]1CC[C@H]2[C@@H]3CCC4=CC(=O)CCC4=C3C=C[C@]12C` [Trenbolone acetate], the LOEL worked out at 0.002 mg/kg-day with Sus scrofa (chronic, diet) and 2 µg/kg-day in the series on Sus scrofa (feed).
As to `CC1=C[C@H]2O[C@@H]3[C@H](O)C[C@](C)([C@@]2(CO)[C@H](O)C1=O)[C@@]31CO1` [Vomitoxin], in the series on Sus scrofa (repeat dose other, diet, Emesis), the NOEL turned out to be 0.25 mg/kg-day.
As to `CC1=CCC2CC1C2(C)C` (stereo not drawn) [alpha-Pinene], the no observed adverse effect level (NOAEL) was found to be 600 mg/kg-day in the series with Cricetulus sp. (developmental, duration: 10 days); 600 mg/kg-day in the series with Cricetulus sp. (reproduction developmental, duration: 10 days, F); 600 mg/kg-day in the series on Cricetulus sp. (reproduction developmental); 279 mg/m3 in the series with Mus musculus [1] (setting [15]); 279 mg/m3 in the series with Mus musculus [1] (setting [16]); 560 mg/kg-day in the series with Mus musculus [1] (setting [13]). Further, the no observed adverse effect level (NOAEL) was 170 mg/kg-day in the series with Rattus norvegicus [2] (setting [17]); 21 mg/kg-day with Rattus norvegicus [2] (setting [18]); 260 mg/kg-day with Rattus norvegicus [2] (developmental, duration: 10 days, oral, gavage, Wistar); 260 mg/kg-day in the series with Rattus norvegicus [2] (reproduction developmental, duration: 10 days, oral, gavage, F, Wistar). Further, the lowest-observed-adverse-effect level (LOAEL) worked out at 557 mg/m3 with Mus musculus [1] (setting [15]), 557 mg/m3 with Mus musculus [1] (setting [16]), 340 mg/kg-day in the series on Rattus norvegicus [2] (setting [17]) and 42 mg/kg-day in the series with Rattus norvegicus [2] (setting [18]). Further, the LD50 in the series on Oryctolagus sp. is greater than 5000 mg/kg; in the series with Rattus norvegicus [2] (acute, oral, Wistar) it was 3700 mg/kg.
